ChEMBL document CHEMBL5518165, “M335, a novel small-molecule STING agonist activates the immune response and exerts antitumor effects” (Eur J Med Chem, 2024)
Activity calls are given as the source filed them. No cut-off for these calls is given here.

How the values were obtained:
MC-38 [1] = experiment: Antitumor activity against mouse MC38 cells allografted in C57/BL6 mouse assessed as tumor growth inhibition at 300 ug, IT administered every 2 days relative to control; format: functional; details: dose 300 µg
MC-38 [2] = experiment: Antitumor activity against mouse MC38 cells allografted in C57/BL6 mouse assessed as increase in CD3+ T cells in spleen at 300 ug, IT administered every 2 days by flow cytometry analysis; format: functional, cell-based; details: dose 300.0 µg
MC-38 [3] = experiment: Antitumor activity against mouse MC38 cells allografted in C57/BL6 mouse assessed as increase in CD8+ T cells in spleen at 300 ug, IT administered every 2 days by flow cytometry analysis (reference value: 8.80%); format: functional; details: dose 300 µg
[4] = Toxicity in C57/BL6 mouse allografted with mouse MC38 cells assessed as change in body weight at 300 ug, IT administered every 2 days; format: cell-based, MC-38; details: in vivo, other, 48 h, dose 300 µg
THP-1 [5] = experiment: Upregulation of ISG15 mRNA level in STING-knockout human THP-1 cells at 20 uM measured for 4 hrs by qPCR analysis; format: functional, cell-based
MC-38 [6] = experiment: Antitumor activity against mouse MC38 cells allografted in C57/BL6 mouse assessed as increase in IL-6 level in serum at 300 ug, IT administered every 2 days by ELISA; format: functional, cell-based; details: dose 300.0 µg
[7] = biological target: T1, Stimulator of interferon genes protein (Mus musculus) (UniProt Q3TBT3); experiment: Agonist activity at STING in MEF cells assessed as STING translocation to golgi apparatus by measuring increase in red fluorescence incubated for 1 hr by laser scanning confocal microscope analysis; format: cell-based; details: filed as agonist
T1 sequence (whole entry): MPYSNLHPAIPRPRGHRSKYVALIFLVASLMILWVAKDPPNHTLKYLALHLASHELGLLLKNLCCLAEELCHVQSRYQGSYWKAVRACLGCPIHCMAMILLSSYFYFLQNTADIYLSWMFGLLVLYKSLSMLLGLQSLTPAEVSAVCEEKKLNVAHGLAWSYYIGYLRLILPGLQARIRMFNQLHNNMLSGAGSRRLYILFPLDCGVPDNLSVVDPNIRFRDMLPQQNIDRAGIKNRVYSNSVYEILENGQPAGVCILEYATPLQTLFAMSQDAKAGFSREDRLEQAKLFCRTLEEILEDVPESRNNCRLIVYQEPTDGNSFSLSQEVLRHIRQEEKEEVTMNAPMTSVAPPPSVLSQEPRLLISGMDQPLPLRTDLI

CT26 [8] = experiment: Antitumor activity against mouse CT26 cells […] mouse assessed as augmentation of CD8+ T cells in spleen at 20 mg/kg, ip administered every 2 days (reference value: 6.99%); format: functional; details: time 2 day
[9] = biological target: Stimulator of interferon genes protein (Homo sapiens) (UniProt Q86WV6); experiment: Agonist activity at STING in human THP-1 cells assessed as upregulation of type-1 interferon signaling pathway by gene ontology analysis; format: cell-based; details: filed as agonist
Stimulator of interferon genes protein (Homo sapiens), sequence (Q86WV6 whole entry): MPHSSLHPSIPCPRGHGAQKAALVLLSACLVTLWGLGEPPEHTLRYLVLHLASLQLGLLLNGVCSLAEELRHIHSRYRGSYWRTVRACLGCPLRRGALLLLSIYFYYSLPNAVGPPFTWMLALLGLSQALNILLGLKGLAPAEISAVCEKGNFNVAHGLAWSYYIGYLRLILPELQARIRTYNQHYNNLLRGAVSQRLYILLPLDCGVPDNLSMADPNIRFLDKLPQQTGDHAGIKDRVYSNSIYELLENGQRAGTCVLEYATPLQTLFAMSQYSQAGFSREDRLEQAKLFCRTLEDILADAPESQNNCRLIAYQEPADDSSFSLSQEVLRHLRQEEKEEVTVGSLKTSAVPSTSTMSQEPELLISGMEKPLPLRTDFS

[10] = Toxicity in C57/BL6 mouse xenografted with mouse MC38 cells assessed as organ damage at 300 ug, IT administered every 2 days by hematoxylin and eosin staining based histological analysis; format: cell-based, MC-38; details: in vivo, other, 48 h, dose 300 µg
CT26 [11] = experiment: Antitumor activity against mouse CT26 cells allografted in […] mouse assessed as augmentation of CD45+ cells in spleen at 5 mg/kg, ip administered every 2 days (reference value: 35.1%); format: functional
MC-38 [12] = experiment: Antitumor activity against mouse MC38 cells allografted in C57/BL6 mouse assessed as increase in NK cells in tumor tissue at 300 ug, IT administered every 2 days by flow cytometry analysis (reference value: 14%); format: functional; details: dose 300 µg, time 2 day
[13] = biological target: T1, Stimulator of interferon genes protein (Mus musculus); experiment: Agonist activity at STING in MEF cells assessed as STING translocation by measuring aggregation of green fluorescence incubated for 1 hr by laser scanning confocal microscope analysis; format: cell-based; details: filed as agonist
[14] = biological target: Stimulator of interferon genes protein (Homo sapiens) (UniProt Q86WV6); experiment: Agonist activity at STING in human THP-1 cells assessed as decrease in STING monomer level at 5 to 40 uM by Western blotting analysis; format: cell-based; details: filed as agonist, dose 5-40 µM
Human alphaherpesvirus 1 = experiment: Antiviral activity against HSV-1-GFP infected in human STING overexpressing HeLa cells assessed as reduction in viral infection by fluorescent microscopy analysis; format: functional, organism-based
[15] = biological target: T1, Stimulator of interferon genes protein (Mus musculus); experiment: Agonist activity at STING in MEF cells assessed as nuclear transposition of phosphorylated IRF3 incubated for 1 hr by laser scanning confocal microscope analysis; format: cell-based; details: filed as agonist
MC-38 [16] = experiment: Antitumor activity against mouse MC38 cells allografted in C57/BL6 mouse assessed as increase in NK cells in spleen at 300 ug, IT administered every 2 days by flow cytometry analysis (reference value: 3.95%); format: functional; details: dose 300 µg, time 2 day
[17] = biological target: Stimulator of interferon genes protein (Homo sapiens) (UniProt Q86WV6); experiment: Agonist activity at STING in human THP-1 cells assessed as upregulation of interferon stimulated genes at 20 uM by RNA sequencing analysis; format: cell-based; details: filed as agonist
CT26 [18] = experiment: Antitumor activity against mouse CT26 cells allografted in […] mouse assessed as reduction in tumor development at 300 ug, IT administered every 2 days; format: functional, cell-based; details: dose 300.0 µg
[19] = biological target: Stimulator of interferon genes protein (Homo sapiens) (UniProt Q86WV6); experiment: Agonist activity at STING in human THP-1 cells assessed as increase in CXCL10 mRNA level at 20 uM measured for 4 hrs by qPCR analysis; format: cell-based; details: filed as agonist
[20] = biological target: Stimulator of interferon genes protein (Homo sapiens) (UniProt Q86WV6); experiment: Agonist activity at STING in human THP-1 cells assessed as increase in IRF3 phosphorylation at 20 uM measured for 4 hrs by Western blotting analysis; format: cell-based; details: filed as agonist
[21] = biological target: Stimulator of interferon genes protein (Homo sapiens) (UniProt Q86WV6); experiment: Agonist activity at STING in human THP-1 cells assessed as increase in IRF3 phosphorylation incubated for 4 hrs by Western blotting analysis; format: cell-based; details: filed as agonist, dose 5-40 µM
THP-1 [22] = experiment: Upregulation of TBK1 phosphorylation in STING-knockout human THP-1 cells at 20 uM measured for 4 hrs by Western blotting analysis; format: functional, cell-based
CT26 [23] = experiment: Antitumor activity against mouse CT26 cells […] mouse assessed as augmentation of CD3+ T cells in spleen at 10 mg/kg, ip administered every 2 days (reference value: 13.9%); format: functional
[24] = biological target: Stimulator of interferon genes protein (Homo sapiens) (UniProt Q86WV6); experiment: Binding affinity to human STING CTD assessed as change in protein denaturation temperature at 10 to 50 uM by thermal shift assay; details: filed as agonist, dose 10-50 µM
THP-1 [25] = experiment: Upregulation of IRF3 phosphorylation in STING-knockout human THP-1 cells at 20 uM measured for 4 hrs by Western blotting analysis; format: functional, cell-based
CT26 [26] = experiment: Antitumor activity against mouse CT26 cells […] mouse assessed as augmentation of CD3+ T cells in spleen at 5 mg/kg, ip administered every 2 days (reference value: 13.9%); format: functional
[27] = biological target: T1, Stimulator of interferon genes protein (Mus musculus); experiment: Agonist activity at STING in MEF cells assessed as increase in STING oligomerization by Western blotting analysis; format: cell-based; details: filed as agonist
CT26 [28] = experiment: Antitumor activity against mouse CT26 cells […] mouse assessed as augmentation of CD8+ T cells in spleen at 5 mg/kg, ip administered every 2 days (reference value: 6.99%); format: functional
[29] = biological target: Stimulator of interferon genes protein (Homo sapiens) (UniProt Q86WV6); experiment: Agonist activity at STING in human THP-1 cells assessed as TBK1 phosphorylation at 20 uM measured for 4 hrs in presence of H-151 by Western blotting analysis; format: cell-based

## CC(NCCC(c1ccccc1)c1ccccc1)c1ccccc1 (stereo not given) [FENDILINE]
MC-38 [1]
  TGI: 82%
MC-38 [2]
  Activity: Active
MC-38 [3]
  Activity: 14.3%
[4]
  Activity: Non-Toxic
THP-1 [5]
  Activity: inactive
MC-38 [6]
  Activity: Active
[7]
  Activity: Active
CT26 [8]
  Activity: 21%
[9]
  Activity: Active
[10]
  Activity: Non-Toxic
CT26 [11]
  Activity: 42.5%
MC-38 [12]
  Activity: 24%
[13]
  Activity: Active
[14]
  Activity: Active
Human alphaherpesvirus 1
  Activity: Active
[15]
  Activity: Active
MC-38 [16]
  Activity: 5.94%
[17]
  Activity: Active
CT26 [18]
  Activity: Active
[19]
  Activity: Active
[20]
  Activity: Active
[21]
  Activity: Dose-Dependent Effect
THP-1 [22]
  Activity: inactive
CT26 [23]
  Activity: 28.6%
[24]
  Activity: Active
THP-1 [25]
  Activity: inactive
CT26 [26]
  Activity: 20.3%
[27]
  Activity: Active
CT26 [28]
  Activity: 12.7%
[29]
  Activity: inactive
